Test results published in the RepoRT retention time repository.

Assay: HILIC, Waters ACQUITY UPLC BEH Amide, 100 × 2.1 mm, 1.7 µm; A: water + 0.125% formic acid + 10 mM ammonium formate; B: 5% water + 95% acetonitrile + 0.125% formic acid + 10 mM ammonium formate; gradient (min/%B) 0/100 2/100 7.7/70 9.5/40 10.25/30 12.75/100 17/100
Conditions: stereoisomer not certain

Structure (SMILES)	LC retention time [min]
CCCCCCCCCCCCCC(=O)OC(CO)CO [2-Myristoylglycerol]	1.01
CCCCCCCCCCCCCCCC(=O)OC(CO)CO [2-Palmitoylglycerol]	0.99
NC(=O)Cc1ccccc1 [2-Phenylacetamide]	1.26
CCC(=O)NCC(=O)O [2-Propanamidoacetic acid]	5.37
O=c1cccc[nH]1 [2-Pyridone]	2.05
Nc1ccn(C2OC(CO)C(O)C2O)c(=S)n1 (stereo not given) [2-Thiocytidine]	5.33
O=c1ccn(C2OC(CO)C(O)C2O)c(=S)[nH]1 (stereo not given) [2-Thiouridine]	2.48
OCC1OC(OC2C(O)OC(CO)C(O)C2O)C(O)C(O)C1O (stereo not drawn) [2-alpha-Mannobiose]	9.47
Nc1ncnc2c1ncn2C1CC2OP(=O)(O)OCC2O1 (stereo not given) [3',5'-Cyclic dAMP]	7.29
COC1C(CO)OC(n2ccc(N)nc2=O)C1O (stereo not given) [3'-O-Methylcytidine]	5.09
COC1C(CO)OC(n2cnc3c(=O)[nH]c(N)nc32)C1O (stereo not given) [3'-O-Methylguanosine]	5.8
COC1C(CO)OC(n2ccc(=O)[nH]c2=O)C1O (stereo not given) [3'-O-Methyluridine]	2.42
O=C(O)C(O)c1ccc(O)c(O)c1 (stereo not given) [3,4-Dihydroxymandelic acid]	2.3
NC(Cc1ccc(O)c(O)c1)C(=O)O (stereo not given) [3,4-Dihydroxyphenylalanine]	8.31
COc1ccc(C=O)cc1OC [3,4-Dimethoxybenzaldehyde]	1.08
CCNC(C)Cc1ccc2c(c1)OCO2 (stereo not given) [3,4-Methylenedioxyethamphetamine]	2.94
NC(Cn1cccn1)C(=O)O (stereo not given) [3-(1-Pyrazolyl)-alanine]	7.54
NC(CC(=O)O)c1ccc(O)cc1 (stereo not given) [3-Amino-3-(4-hydroxyphenyl)propionic acid]	7.42
CC(CN)C(=O)O (stereo not given) [3-Aminoisobutyric acid]	7.4
Nc1cc(CC(N)C(=O)O)ccc1O (stereo not given) [3-Aminotyrosine]	8.06
NC(Cc1ccc(O)c(Cl)c1)C(=O)O (stereo not given) [3-Chlorotyrosine]	7.13
O=c1ccn(C2OC(CO)CC2O)c(=O)[nH]1 (stereo not given) [3-Deoxyuridine]	2.87
NC(N)=NCCC(=O)O [3-Guanidinopropionic acid]	8.15
Nc1c(O)cccc1C(=O)O [3-Hydroxyanthranilic acid]	1.48

Structure (SMILES)	LC retention time [min]
O=Cc1cccc(O)c1 [3-Hydroxybenzaldehyde]	1.18
CC(O)CC(=O)OC(CC(=O)[O-])C[N+](C)(C)C (stereo not given) [3-Hydroxybutyrylcarnitine]	7.62
Nc1c(O)cccc1C(=O)CC(N)C(=O)O (stereo not given) [3-Hydroxykynurenine]	7.35
O=C(O)Cc1cccc(O)c1 [3-Hydroxyphenylacetic acid]	1.45
NC(Cc1cccc(O)c1)C(=O)O (stereo not given) [3-Hydroxyphenylalanine]	7.44
O=C(O)C1NCCC1O (stereo not given) [3-Hydroxyproline]	8.17
O=C(O)CCCCCCC(O)CC(=O)O (stereo not given) [3-Hydroxysebacic acid]	2.55
CCC(O)CC(=O)O (stereo not given) [3-Hydroxyvaleric acid]	1.29
O=C(O)Cc1c[nH]c2ccccc12 [3-Indoleacetic acid]	1.33
N#CCc1c[nH]c2ccccc12 [3-Indoleacetonitrile]	8.02
O=C(O)CCc1c[nH]c2ccccc12 [3-Indolepropionic acid]	1.28
CC(C)=CC(=O)NCC(=O)O [3-Methylcrotonylglycine]	2.95
Cn1c(=N)ccn(C2OC(CO)C(O)C2O)c1=O (stereo not given) [3-Methylcytidine]	6.99
Cn1cncc1CC(N)C(=O)O (stereo not given) [3-Methylhistidine]	9.41
CC1C(=O)Nc2ccccc21 (stereo not given) [3-Methyloxyindole]	1.07
CSCCCN [3-Methylthiopropylamine]	5.16
Cn1c(=O)ccn(C2OC(CO)C(O)C2O)c1=O (stereo not given) [3-Methyluridine]	1.12
NC(Cc1ccc(O)c([N+](=O)[O-])c1)C(=O)O (stereo not given) [3-Nitrotyrosine]	6.88
CCCCCC(O)CC (stereo not given) [3-Octanol]	8.47
O=C(O)CCP(=O)(O)O [3-Phosphonopropionic acid]	8.59
OCc1cccnc1 [3-Pyridinemthanol]	1.41
C[Si](C)(C)CCC(=O)O [3-Trimethylsilylpropionic acid]	5.64
NC(=O)NCCC(=O)O [3-Ureidopropionic acid]	5.6
CC(C)CCCC(C)C1CCC2C3CC=C4CC(OC(=O)NCCN(C)C)CCC4(C)C3CCC12C (stereo not drawn) [3-beta-Cholest-5-en-3-yl [2-(dimethylamino)ethyl]carbamate]	2.34

Structure (SMILES)	LC retention time [min]
O=c1c(-c2ccc(O)cc2)coc2cc(O)cc(O)c12 [4,5,7-Trihydroxyisoflavone]	1.27
CC(=O)NCCCC(=O)O [4-Acetamidobutyric acid]	2.26
CC(=O)CCCC(=O)O [4-Acetylbutyric acid]	1.24
Nc1ccc(C(=O)O)cc1 [4-Aminobenzoic acid]	7.49
NCC1CCC(C(=O)O)CC1 (stereo not given) [4-Aminomethylcyclohexanecarboxylic acid]	6.6
Nc1ccc(O)cc1 [4-Aminophenol]	1.34
NC(N)=NCCCC(=O)O [4-Guanidinobutyric acid]	7.72
CCCCCCc1ccc(O)cc1O [4-Hexylresorcinol]	1.63
CC(=O)CC(C)(C)O [4-Hydroxy-4-methyl-2-pentanone]	4.88
Cc1cc(O)cc(=O)o1 [4-Hydroxy-6-methyl-2-pyrone]	1.47
O=Cc1ccc(O)cc1 [4-Hydroxybenzaldehyde]	1.18
O=C(O)CNC(=O)c1ccc(O)cc1 [4-Hydroxyhippuric acid]	5.86
N#CC(O)c1ccc(O)cc1 (stereo not given) [4-Hydroxymandelonitrile]	2.63
CCCCCC(O)C=CC=O (stereo not given) [4-Hydroxynonenal]	1.07
O=c1cc[nH]c2ccccc12 [4-Hydroxyquinoline]	1.69
Cc1ncsc1CCO [4-Methyl-5-thiazoleethanol]	1.21
Cc1cc(=O)oc2cc(O)ccc12 [4-Methylumbelliferone]	1.22
CC(=O)Oc1ccc2c(C)cc(=O)oc2c1 [4-Methylumbelliferyl acetate]	1.06
O=[N+]([O-])c1cc[n+]([O-])c2ccccc12 [4-Nitroquinoline-N-oxide]	1.14
Cc1ncc(CO)c(C(=O)O)c1O [4-Pyridoxic acid]	2.66
O=C(O)c1ccnc2ccccc12 [4-Quinolinecarboxylic acid]	4.58
O=c1[nH]c(=S)ccn1C1OC(CO)C(O)C1O (stereo not given) [4-Thiouridine]	2.27
C[N+](C)(C)CCCC(=O)O [4-Trimethylammoniobutanoic acid]	7.66
CSCC1OC(n2cnc3c(N)ncnc32)C(O)C1O (stereo not given) [5'-Methylthioadenosine]	2.49

Structure (SMILES)	LC retention time [min]
COCC1OC(n2cc(C)c(=O)[nH]c2=O)CC1O (stereo not given) [5'-O-Methylthymidine]	1.46
CC1CNC(=O)NC1=O (stereo not given) [5,6-Dihydro-5-methyluracil]	1.57
O=C1CCNC(=O)N1 [5,6-Dihydrouracil]	1.77
Cc1cc2nc[nH]c2cc1C [5,6-Dimethylbenzimidazole]	1.82
NC(=O)c1[nH]cnc1N [5-Aminoimidazole-4-carboxamide]	4.18
NCCCCC(=O)O [5-Aminovaleric acid]	7.24
CC(C)CCCC(C)C1CCC2C3C(O)C=C4CC(O)CCC4(C)C3CCC12C (stereo not drawn) [5-Cholesten-3-beta-7-alpha-diol]	3.36
O=c1ncc(F)c[nH]1 [5-Fluro-2-pyrimidone]	1.77
Nc1[nH]c(=O)ncc1F [5-Flurocytosine]	4.62
O=C(O)Cc1c[nH]c2ccc(O)cc12 [5-Hydroxy-3-indoleacetic acid]	1.78
Nc1nc(=O)n(C2OC(CO)C(O)C2O)cc1CO (stereo not given) [5-Hydroxymethylcytidine]	7.54
Nc1[nH]c(=O)ncc1CO [5-Hydroxymethylcytosine]	6.9
NC(Cc1c[nH]c2ccc(O)cc12)C(=O)O (stereo not given) [5-Hydroxytryptophan]	7.48
OCCc1c[nH]c2ccc(O)cc12 [5-Hydroxytryptophol]	5.93
COc1ccc2[nH]cc(CC(=O)O)c2c1 [5-Methoxy-3-indoleacetic acid]	1.32
COc1c2ccoc2cc2oc(=O)ccc12 [5-Methoxypsoralen]	1.07
COc1ccc2[nH]cc(CCN)c2c1 [5-Methoxytryptamine]	4.99
COc1ccc2[nH]cc(CCO)c2c1 [5-Methoxytryptophol]	1.18
COc1cn(C2OC(CO)C(O)C2O)c(=O)[nH]c1=O (stereo not given) [5-Methoxyuridine]	4.72
Cc1cn(C2OC(CO)C(O)C2O)c(=S)[nH]c1=O (stereo not given) [5-Methyl-2-thiouridine]	1.98
Cc1cn(C2OC(CO)CC2O)c(=O)[nH]c1=O (stereo not given) [5-Methyl-3-deoxyuridine]	2.6
Cc1cn(C2OC(CO)C(O)C2O)c(=O)nc1N (stereo not given) [5-Methylcytidine]	6.39
Cc1cnc(=O)[nH]c1N [5-Methylcytosine]	6.62
